From patent publication US10307357B2, “Prebiotic oral care compositions containing an alkyl glycoside” (COLGATE-PALMOLIVE COMPANY, priority 2013, dated 2019)

Assays:
Experiment in all cases: Phenotype microarray metabolic activity
Assay type in all cases: cell-based
Conditions in all cases: control = 1
Actinomyces naeslundii = test system: Actinomyces naeslundii
Protocol: (§1) The extent of metabolic activity of the tested bacteria in the presence of the above-mentioned glycosides after 24 hours and 48 hours was investigated through a high throughput phenotype microarray system (PM) for microbial cells (Biolog Inc.). Each PM can contain up to 95 different biochemical compounds (e.g. glycosides) that may act as substrates for bacteria as well as one negative control, not containing the substrates. Microarray plates were used in which the different wells of each plate were pre-loaded (by the manufacturer, Biolog Inc.) with different glycosides to be tested. Each bacterial species was tested using a separate microarray plate. Thus, a single bacterial species was tested with a variety of glycosides on each particular plate. The microarrays are based on redox technology, using cell respiration as a universal reporter. Active cell respiration results in the reduction of a tetrazolium dye and in the formation of a strong color—for example, when using the tetrazolium dye “Biolog Redox Dye Mix D”, the color changes from transparent/colorless to purple when the dye is reduced. The observation of this color change indicates which of the substrates improve the metabolic activity and health of the cells. Each bacterial species was collected from blood agar plates (incubated for 48 hours anaerobically at 37° C.) and transferred to an IF-0 Base inoculation fluid (Biolog Inc.), which is a nutritionally poor medium. The resulting cell suspension was adjusted to a transmittance of 42% (relative to the transmittance of the base inoculation fluid with no bacterial species present) at 492 nm using a BioRad SmartSpec 3000 Photometer (the adjustment being effected by adding either further inoculation fluid or further bacteria until the transmittance of 42% was achieved). A 1:5 dilution of this suspension was prepared by mixing 3 mL of the 42% transmittance cell suspension with […] of an inoculation fluid (which inoculation fluid was formed by mixing 11.6 mL sterile water, 62.5 mL IF-0 base inoculation fluid and 0.9 mL of the tetrazolium dye “Biolog Redox Dye mix D”), resulting in a final cell density which was equal to 85% transmittance using a BioRad SmartSpec 3000 Photometer. For each of the glycosides tested, the microarray plate (obtained from the supplier (Biolog Inc.) with glycosides already present in the relevant wells in powder form) was directly inoculated with 100 μL/well of this 85% transmittance cell suspension. All plates were incubated in an anaerobic atmosphere at 37° C. Color changes were measured spectrophotometrically at 492 nm (Thermo Scientific Multiskan Ascent) at 24 hrs and 48 hrs using the same plate at both time points. […] After 24 hrs and 48 hrs under continuous shaking in a Multiscan microplate reader, the optical density (OD) of the synthetic medium at 24 hours and 48 hours was measured (using the microplate reader) at a wavelength of 492 nm for each combination of bacterium/glycoside, and for each of their respective controls (i.e. which contained the particular bacterium but no glycosides). […] The experiment was carried out three times for each combination of bacterium with glycosides, with each repeat being carried out on a different day (thus providing three biological replicas). The controls were also carried out three times, as above. The values shown are the average (mean) of the three single values obtained (as detailed above) for each combination of bacterium with glycosides, at 24 hrs and at 48 hrs.

Actinomyces viscosus = test system: Actinomyces viscosus
Protocol: as §1

[1] = test system: Aggregatibacter actinomycetemcomitans
Protocol: as §1

Capnocytophaga sputigena = test system: Capnocytophaga sputigena
Protocol: as §1

Fusobacterium nucleatum = test system: Fusobacterium nucleatum
Protocol: as §1

Porphyromonas gingivalis = test system: Porphyromonas gingivalis
Protocol: as §1

Prevotella intermedia = test system: Prevotella intermedia
Protocol: as §1

Streptococcus gordonii = test system: Streptococcus gordonii
Protocol: as §1

Streptococcus mitis = test system: Streptococcus mitis
Protocol: as §1

Streptococcus mutans = test system: Streptococcus mutans
Protocol: as §1

Streptococcus salivarius = test system: Streptococcus salivarius
Protocol: as §1

Streptococcus sanguinis = test system: Streptococcus sanguinis
Protocol: as §1

Streptococcus sobrinus = test system: Streptococcus sobrinus
Protocol: as §1

Tannerella forsythia = test system: Tannerella forsythia
Protocol: as §1

Veillonella parvula = test system: Veillonella parvula
Protocol: as §1

SMILES | OD 492 nm divided by control (metabolic activity) (Actinomyces naeslundii; 24 hrs) | OD 492 nm divided by control (metabolic activity) (Actinomyces naeslundii; 48 hrs) | OD 492 nm divided by control (metabolic activity) (Actinomyces viscosus; 24 hrs) | OD 492 nm divided by control (metabolic activity) (Actinomyces viscosus; 48 hrs) | OD 492 nm divided by control (metabolic activity) ([1]; 24 hrs) | OD 492 nm divided by control (metabolic activity) ([1]; 48 hrs) | OD 492 nm divided by control (metabolic activity) (Capnocytophaga sputigena; 24 hrs) | OD 492 nm divided by control (metabolic activity) (Capnocytophaga sputigena; 48 hrs) | OD 492 nm divided by control (metabolic activity) (Fusobacterium nucleatum; 24 hrs) | OD 492 nm divided by control (metabolic activity) (Fusobacterium nucleatum; 48 hrs) | OD 492 nm divided by control (metabolic activity) (Porphyromonas gingivalis; 24 hrs) | OD 492 nm divided by control (metabolic activity) (Porphyromonas gingivalis; 48 hrs) | OD 492 nm divided by control (metabolic activity) (Prevotella intermedia; 24 hrs) | OD 492 nm divided by control (metabolic activity) (Prevotella intermedia; 48 hrs) | OD 492 nm divided by control (metabolic activity) (Streptococcus gordonii; 24 hrs) | OD 492 nm divided by control (metabolic activity) (Streptococcus gordonii; 48 hrs) | OD 492 nm divided by control (metabolic activity) (Streptococcus mitis; 24 hrs) | OD 492 nm divided by control (metabolic activity) (Streptococcus mitis; 48 hrs) | OD 492 nm divided by control (metabolic activity) (Streptococcus mutans; 24 hrs) | OD 492 nm divided by control (metabolic activity) (Streptococcus mutans; 48 hrs) | also measured
CO[C@@H]1O[C@H](CO)[C@H](O)[C@H](O)[C@H]1O [β-methyl-D-galactoside] | 1.5393 | 1.9886 | 2.8391 | 3.9827 | 0.8310 | 0.7733 | 1.0421 | 1.0860 | 0.9051 | 0.7899 | 1.1297 | 1.8212 | 1.0543 | 1.0046 | 1.4834 | 1.8026 | 1.0977 | 0.9864 | 1.1594 | 1.0780 | OD 492 nm divided by control (metabolic activity) (Streptococcus salivarius; 24 hrs): 6.9837; OD 492 nm divided by control (metabolic activity) (Streptococcus salivarius; 48 hrs): 6.4661; OD 492 nm divided by control (metabolic activity) (Streptococcus sanguinis; 24 hrs): 1.0434; OD 492 nm divided by control (metabolic activity) (Streptococcus sanguinis; 48 hrs): 1.0609; OD 492 nm divided by control (metabolic activity) (Streptococcus sobrinus; 24 hrs): 1.3078; OD 492 nm divided by control (metabolic activity) (Streptococcus sobrinus; 48 hrs): 1.3002; OD 492 nm divided by control (metabolic activity) (Tannerella forsythia; 24 hrs): 1.2183; OD 492 nm divided by control (metabolic activity) (Tannerella forsythia; 48 hrs): 1.8850; OD 492 nm divided by control (metabolic activity) (Veillonella parvula; 24 hrs): 0.8103; OD 492 nm divided by control (metabolic activity) (Veillonella parvula; 48 hrs): 0.6840
CO[C@H]1O[C@H](CO)[C@H](O)[C@H](O)[C@H]1O [α-methyl-D-galactoside] | 2.1644 | 2.8156 | 2.4728 | 3.3823 | 0.8204 | 0.7697 | 0.5747 | 0.8435 | 0.8949 | 0.8204 | 0.8079 | 0.8180 | 0.9609 | 0.9269 | 0.8960 | 0.8401 | 1.3498 | 1.3555 | 1.0573 | 0.9904 | OD 492 nm divided by control (metabolic activity) (Streptococcus salivarius; 24 hrs): 0.9677; OD 492 nm divided by control (metabolic activity) (Streptococcus salivarius; 48 hrs): 0.8829; OD 492 nm divided by control (metabolic activity) (Streptococcus sanguinis; 24 hrs): 1.0198; OD 492 nm divided by control (metabolic activity) (Streptococcus sanguinis; 48 hrs): 1.1007; OD 492 nm divided by control (metabolic activity) (Streptococcus sobrinus; 24 hrs): 1.0761; OD 492 nm divided by control (metabolic activity) (Streptococcus sobrinus; 48 hrs): 0.9730; OD 492 nm divided by control (metabolic activity) (Tannerella forsythia; 24 hrs): 1.0380; OD 492 nm divided by control (metabolic activity) (Tannerella forsythia; 48 hrs): 1.1302; OD 492 nm divided by control (metabolic activity) (Veillonella parvula; 24 hrs): 0.9782; OD 492 nm divided by control (metabolic activity) (Veillonella parvula; 48 hrs): 1.2054
